Key:
[1] = tested on: broad spectrum of cancer cell lines, including cisplatin-resistant ones; design: method as in PMID 23362983; conditions: cited from earlier work
[2] = design: method as in PMID 23362983; conditions: cited from earlier work
[3] = Stability of GC20 in rat plasma under different storage conditions; type: in vitro ADME; conditions: for Measured Concentration: n = 6
Method: Extraction recovery was calculated by comparing the peak areas of extraction samples and post-extraction spiked samples. Matrix effect was evaluated by comparing the peak areas of post-extraction spiked samples and pure standard solutions. Post-extraction spiked samples were prepared as follows: Adding standard working solution into the mixed solution after protein precipitation of blank plasma to yield equivalent concentrations to corresponding extraction samples. Six replicates at three concentration levels were used for stability validation under a variety of storage and handling conditions. Samples were subjected to three freeze-thaw cycles, frozen at −80 °C for 7 days and 60 days, and storing at room temperature for 12 h. Post-preparative stability was evaluated by reanalyzing post-extraction samples kept in the autosampler at 4 °C for 48 h.

[4] = Pharmacokinetic study in SD rats after intravenous administration (plasma, LC-MS/MS); type: in vivo, Spague-Dawley rats; conditions: for AUC0-∞ / AUC0–t / C5min: rat plasma; for C5min: n = 6; for CL/F / V/F / t1/2: rat
Method: (§1) The analyte of GC20 in rat biological samples was extracted using one-step protein precipitation. 50 μL of rat plasma or rat tissue homogenate was treated with 250 μL methanol containing IS (375 ng/mL). Vortex for 5 min to completely precipitate the proteins contained in the biological matrix. The mixture was then centrifuged at 18,000 rpm for 10 min (Sorvall Biofuge Stratos, Waltham, MA, USA), and 5 μL supernatant was injected for analysis.
Twenty-four Spague-Dawley rats (twelve male and twelve female, 6–8 weeks old) were purchased from Shanghai SLAC Laboratory Animal Co., Ltd. (Shanghai, China). Animals were housed in an environment which controlled room temperature at 22 ± 2 °C and humidity at 55 ± 5%. Animals received 12/12 h light/dark cycle. Prior to the experiment, animals were fed a standard diet for one week to adapt to the laboratory conditions. Animal welfare and experimental procedures were strictly in accordance with the Guidelines of Animal Experiments of China Pharmaceutical University (Nanjing, China) and approved by the Animal Ethics Committee.
All rats were randomly divided into four groups, each group of six (three male and three female in each group). Three groups consisted of rats that received a single intravenous administration of GC20 at a single dose of 1, 2 or 4 mg/kg, while the fourth group consisted of rats that received a dose of 2 mg/kg on seven consecutive days. The doses for single administration was determined according to the pharmacodynamic doses and toxic doses of GC20 in animals reported in the literature. The dose for multiple administrations was selected from the intermediate dose of a single administration. Dose solutions were prepared with 10% glucose solution. Before administration, rats fasted for 12 h. Blood samples (150 μL) were collected into tubes containing heparin (as an anticoagulant) via the ophthalmic veins at 0 min (i.e., before dosing), 5 min, 10 min, 15 min, 30 min, 1 h, 2 h, 4 h, 6 h, 8 h, 12 h, 24 h, 36 h, 48 h and 72 h. Then, the tubes were centrifuged at 8000 rpm for 5 min to separate the plasma. Plasma samples were then stored at −80 °C until further analysis. The pharmacokinetic parameters were calculated by Phoenix WinNonlin 6.0 (Pharsight, Mountain View, CA, USA).

[5] = Tissue distribution in rats after single intravenous administration; type: in vivo, SD rats; conditions: single i.v. 2 mg/kg
Method: as §1
Eighteen SD rats (nine male and nine female, 6–8 weeks old) were purchased from Shanghai SLAC Laboratory Animal Co., Ltd. (Shanghai, China). After one week of adaptation, all rats were randomly divided into three groups, each group of six (three male and three female in each group). All rats were administrated GC20 solution at a single dose of 2 mg/kg vial the tail vein. The administered dose for tissue distribution was selected from the intermediate dose of single administration in the pharmacokinetic study. Blood samples were first collected via the ophthalmic veins and then rats were sacrificed to harvest tissues (i.e., heart, liver, spleen, lungs, kidneys, stomach, small intestine, brain, skin, muscle, fat, testes/ovaries, pancreas, thymus, and leg bones) promptly at 10 min, 2 h, or 12 h after dosing. To eliminate blood and other content, the tissues were thoroughly rinsed in water. Each tissue sample was homogenized into ten-fold volumes of water and then stored at −80 °C until further analysis.

[6] = post-extraction samples, autosampler 48 h at 4 °C, spiked 50 ng/mL
[7] = post-extraction samples, autosampler 48 h at 4 °C, spiked 1000 ng/mL
[8] = rat plasma, frozen (−80 °C) for 7 days, spiked 50 ng/mL
[9] = rat plasma, frozen (−80 °C) for 7 days, spiked 1000 ng/mL
[10] = rat plasma, frozen (−80 °C) for 60 days, spiked 2 ng/mL
[11] = rat plasma, frozen (−80 °C) for 60 days, spiked 50 ng/mL
[12] = rat plasma, frozen (−80 °C) for 60 days, spiked 1000 ng/mL
[13] = rat plasma, room temperature for 12 h, spiked 2 ng/mL
[14] = rat plasma, room temperature for 12 h, spiked 50 ng/mL
[15] = rat plasma, room temperature for 12 h, spiked 1000 ng/mL
[16] = rat plasma, three freeze-thaw cycles, spiked 2 ng/mL
[17] = rat plasma, three freeze-thaw cycles, spiked 50 ng/mL
[18] = rat plasma, three freeze-thaw cycles, spiked 1000 ng/mL
[19] = multiple dose i.v. 2 mg/kg on seven consecutive days

CC(C)(C)[P+]1(C)c2nc3ccccc3nc2[P+](C)(C(C)(C)C)[Au-3]12[P+](C)(C(C)(C)C)c1nc3ccccc3nc1[P+]2(C)C(C)(C)C (centres unmarked) [GC20, Bis(2,3-bis(tert-butylmethylphosphino)quinoxaline)aurate(I)]
inhibitory effect on proliferation ([1]; broad spectrum of cancer cell lines, including cisplatin-resistant ones): strong inhibitory effect
selectivity between cancer cells and normal cells [1]: remarkable selectivity
toxicity in animal models as compared to cisplatin [2]: lower toxicity
Measured Concentration ([3]; post-extraction samples, autosampler 48 h at 4 °C, spiked 2 ng/mL): 1.8 ± 0.0 ng/mL
Accuracy (RE%) [3, 6]: −9.5%
Measured Concentration [3, 6]: 45.2 ± 0.1 ng/mL
Accuracy (RE%) [3, 7]: −9.9%
Measured Concentration [3, 7]: 901.3 ± 17.1 ng/mL
Accuracy (RE%) ([3]; rat plasma, frozen (−80 °C) for 7 days, spiked 2 ng/mL): 8.2%
Accuracy (RE%) [3, 8]: 4.1%
Measured Concentration [3, 8]: 52.0 ± 0.9 ng/mL
Accuracy (RE%) [3, 9]: 3.1%
Measured Concentration [3, 9]: 1030.5 ± 15.9 ng/mL
Accuracy (RE%) [3, 10]: −8.9%
Measured Concentration [3, 10]: 1.8 ± 0.1 ng/mL
Accuracy (RE%) [3, 11]: −5.4%
Measured Concentration [3, 11]: 47.3 ± 0.6 ng/mL
Accuracy (RE%) [3, 12]: −3.0%
Measured Concentration [3, 12]: 970.1 ± 27.3 ng/mL
Accuracy (RE%) [3, 13]: −9.2%
Measured Concentration [3, 13]: 1.8 ± 0.1 ng/mL
Accuracy (RE%) [3, 14]: 2.0%
Measured Concentration [3, 14]: 51.0 ± 0.4 ng/mL
Accuracy (RE%) [3, 15]: 2.1%
Measured Concentration [3, 15]: 1020.7 ± 23.6 ng/mL
Accuracy (RE%) [3, 16]: 8.7%
Measured Concentration [3, 16]: 2.2 ± 0.1 ng/mL
Accuracy (RE%) [3, 17]: 2.3%
Measured Concentration [3, 17]: 51.1 ± 0.3 ng/mL
Accuracy (RE%) [3, 18]: 0.2%
Measured Concentration [3, 18]: 1001.8 ± 19.0 ng/mL
stability under typical sample storage and processing conditions ([3]; rat plasma, room temperature 12 h, −80 °C 7 and 60 days, three freeze-thaw cycles, autosampler 4 °C 48 h): stable
AUC0-∞ [4, 19]: 6936.7 ± 1005.4 ng·h/mL
AUC0–t ([4]; multiple dose i.v. 2 mg/kg on seven consecutive days, 0–24 h): 4551.2 ± 440.3 ^# h*ng/mL
C5min [4, 19]: 3645.8 ± 388.3 ng/mL
AUC0-∞ ([4]; single dose i.v. 1 mg/kg): 1457.0 ± 354.5 ng·h/mL
AUC0–t ([4]; single dose i.v. 1 mg/kg, 0–72 h): 1419.9 ± 345.5 ng·h/mL
C5min ([4]; single dose i.v. 1 mg/kg): 1564.6 ± 387.5 ng/mL
AUC0-∞ ([4]; single dose i.v. 2 mg/kg): 2540.5 ± 308.6 ng·h/mL
AUC0–t ([4]; single dose i.v. 2 mg/kg, 0–72 h): 2466.4 ± 298.3 ng·h/mL
C5min ([4]; single dose i.v. 2 mg/kg): 2657.6 ± 632.7 ng/mL
AUC0-∞ ([4]; single dose i.v. 4 mg/kg): 7562.2 ± 2709.6 ng·h/mL
AUC0–t ([4]; single dose i.v. 4 mg/kg, 0–72 h): 7237.1 ± 2695.0 ng·h/mL
C5min ([4]; single dose i.v. 4 mg/kg): 5902.6 ± 1955.2 ng/mL
CL/F [4, 19]: 4.83 ± 0.67 mL/min/kg
V/F [4, 19]: 10.6 ± 1.7 L/kg
t1/2 [4, 19]: 25.1 ± 3.0 h
CL/F ([4]; single dose i.v. 1 mg/kg): 12 ± 3.17 mL/min/kg
V/F ([4]; single dose i.v. 1 mg/kg): 11.89 ± 3.35 L/kg
t1/2 ([4]; single dose i.v. 1 mg/kg): 11.33 ± 0.57 h
CL/F ([4]; single dose i.v. 2 mg/kg): 13.3 ± 1.67 mL/min/kg
V/F ([4]; single dose i.v. 2 mg/kg): 13.00 ± 2.39 L/kg
t1/2 ([4]; single dose i.v. 2 mg/kg): 11.24 ± 0.75 h
CL/F ([4]; single dose i.v. 4 mg/kg): 10 ± 4 mL/min/kg
V/F ([4]; single dose i.v. 4 mg/kg): 11.11 ± 5.28 L/kg
t1/2 ([4]; single dose i.v. 4 mg/kg): 12.58 ± 1.80 h
accumulation after multiple doses ([4]; rats, consecutive administration for 7 days): accumulated in rats after multiple doses
elimination half-life after multiple doses relative to single administration ([4]; rats, i.v. 2 mg/kg for 7 days vs single administration): twice that after a single administration
elimination half-life ([4]; rats, single administration of low, medium and high doses (i.v.)): 11 to 13 h
tissue with the lowest concentration ([5]; 10 min, 2 h, 12 h): lowest in the brain
tissues with the highest concentrations ([5]; 10 min, 2 h, 12 h): lung, spleen, liver, and pancreas
time of highest tissue concentration ([5]; spleen, liver, kidney and heart): 2 h

Source: article PMC6600414, “Pharmacokinetics and Tissue Distribution of a Novel Bis-Chelated Gold(I) Diphosphine Compound, Bis(2,3-bis(tert-butylmethylphosphino)Quinoxaline)Aurate(I), in Rats” (Molecules, 2019)
